Source: patent US20040171489A1, “Synergistic active compound combinations for controlling harmful plants” (priority 1998, published 2004)

How the values were obtained:
Zea mays (corn) [1] = assay: Example 17 field trial, pre-emergence: crop damage; assay type: in vivo; settings: 16 days after application
From the text: (§1) Seeds or rhizome pieces of monocotyledonous and dicotyledonous weed plants are placed in sandy loam soil in pots and covered with soil. The compositions, formulated in the form of concentrated aqueous solutions, wettable powders or emulsion concentrates, are then applied to the surface of the soil cover as aqueous solution, suspension or emulsion at an application rate of 600 to 800 l of water/ha (converted), in various dosages. After the treatment, the pots are placed in a greenhouse and kept under good growth conditions for the weeds. After the test plants have emerged, the damage to the plants or the negative effects on the emergence is scored visually after a test period of 3 to 4 weeks by comparison with untreated controls. As shown by the test results, the compositions according to the invention have good herbicidal pre-emergence activity against a broad spectrum of weed grasses and broad-leaved weeds.
The herbicidal efficacy of the active compounds or active compound mixtures was scored visually using the treated plots in comparison to untreated control plots. The damage and development of all above-ground parts of the plants were recorded. […]
(§2) If the observed activity values already exceed the formal sum of the values for the trials with the individual applications, they also exceed the expected value according to Colby which is calculated using the following formula and which is likewise considered to be an indication of synergism (cf. S. R. Colby; in Weeds 15 (1967) p. 20 to 22):
(§3) Crop plants were grown outdoors on plots under natural outdoor conditions, and seeds or rhizome pieces of typical harmful plants were laid out or the natural weed growth was utilized. […] After the application, for example 2, 4, 6 and 8 weeks after the application, the effect of the preparations was scored visually by comparison with untreated controls (cf. scoring in Section 1). […]

Oryza sativa (rice) [2] = assay: Example 22 field trial, 2-leaf stage: crop damage; assay type: in vivo; settings: 14 days after application
Experimental: (§4) The herbicidal efficacy of the active compounds or active compound mixtures was scored visually using the treated plots in comparison to untreated control plots. The damage and development of all above-ground parts of the plants were recorded. Scoring was carried out using a percentage scale (100% effect=all plants killed; 50% effect=50% of the plants and the green parts of the plants killed; 0% effect=no noticeable effect=like control plot. The scores of in each case 4 plots were averaged.
as §2
(§5) Crop plants were grown outdoors on plots under natural outdoor conditions, and seeds or rhizome pieces of typical harmful plants were laid out or the natural weed growth was utilized. Treatment with the compositions according to the invention was carried out after the harmful plants had emerged and the crop plants were, generally, at the 2- to 4-leaf stage; in some cases (as stated), application of individual active compounds or active compound combinations was carried out pre-emergence (cf. Section 1) or post-emergence (cf. Section 2) or as a sequential treatment partly pre-emergence and/or post-emergence. After the application, for example 2, 4, 6 and 8 weeks after the application, the effect of the preparations was scored visually by comparison with untreated controls (cf. scoring in Section 1). In the field trial as well, the compositions according to the invention have synergistic herbicidal activity against a broad spectrum of economically important weed grasses and broad-leaved weeds. […] Moreover, the effects in essential phases of the scoring period were above the expected values according to Colby, also indicating synergism. In contrast, the crop plants were, as a consequence of the treatments with the herbicidal compositions, damaged only to a small degree, if at all.

Monochoria vaginalis = assay: Example 22 field trial, 2-leaf stage: herbicidal effect; assay type: in vivo; settings: 14 days after application
Experimental: as §4, §2, §5

Setaria viridis = assay: Example 19 field trial, 4 to 5-leaf stage: herbicidal effect; assay type: in vivo; settings: 100 g of ai/ha; 31 days after application
Experimental: as §4, §2, §3

Echinochloa crus-galli = assay: as above; assay type: in vivo; settings: 100 g of ai/ha; 31 days after application
Experimental: as §4, §2, §3

Lamium amolexicaule = assay: Example 15 field trial, 2- to 4-leaf stage: herbicidal effect; assay type: in vivo; settings: 28 days after application
Experimental: as §4, §2, §5

Matricaria chamomilla = assay: Example 14 field trial, 2- to 4-leaf stage: herbicidal effect; assay type: in vivo; settings: 28 days after application
Experimental: as §4, §2, §5

[3] = system: corn which is glufosinate-ammonium-resistant; assay: Example 18 field trial, 3-leaf stage: crop damage; assay type: in vivo, Corn (LL); settings: 100 g of ai/ha; 31 days after application
Experimental: The damage and development of all above-ground parts of the plants were recorded.
Crop plants were grown outdoors on plots under natural outdoor conditions, and seeds or rhizome pieces of typical harmful plants were laid out or the natural weed growth was utilized.

Capsella bursa-pastoris [4] = assay: Example 11 field trial, 2- to 4-leaf stage: herbicidal effect; assay type: in vivo; settings: 28 days after application
Experimental: as §4, §2, §5

winter wheat [5] = assay: Example 16 field trial, post-emergence, 2- to 3-leaf stage: crop damage; assay type: in vivo, Triticum aestivum; settings: 50 g of ai/ha; 69 days after application
Experimental: as §4, §2, §3

winter wheat [6] = assay: Example 12 field trial, 2- to 4-leaf stage: crop damage; assay type: in vivo, Triticum aestivum; settings: 42 days after application
Experimental: as §4, §2, §5

Oryza sativa (rice) [7] = assay: Example 21 field trial, 4-leaf stage: crop damage; assay type: in vivo; settings: 42 days after application
Experimental: as §4, §2
as §5, with “In contrast, the crop plants were, as a consequence of the treatments with the herbicidal compositions, damaged only to a small degree, if at all.” left out

winter wheat [8] = assay: Example 15 field trial, 2- to 4-leaf stage: crop damage; assay type: in vivo, Triticum aestivum; settings: 28 days after application
Experimental: as §4, §2, §5

Ipomoea hederacea = assay: Example 17 field trial, pre-emergence: herbicidal effect; assay type: in vivo; settings: 16 days after application
From the text: as §1, §4, §2, §5

Setaria faberi = assay: as above; assay type: in vivo; settings: 16 days after application
From the text: as §1, §4, §2, §5

Alopecurus myosuroides = assay: Example 9 field trials, application 1-3 leaf stage broad-leaved weeds: herbicidal effect; assay type: in vivo; settings: 100 g of ai/ha; 120 to 160 days after application
Experimental: as §4, §2, §5

Capsella bursa-pastoris [9] = assay: as above; assay type: in vivo; settings: 100 g of ai/ha; 120 to 160 days after application
Experimental: as §4, §2, §5

Pharbitis purpurea = assay: Example 21 field trial, 4-leaf stage: herbicidal effect; assay type: in vivo; settings: 42 days after application
Experimental: as §4, §2
as §5, with “In contrast, the crop plants were, as a consequence of the treatments with the herbicidal compositions, damaged only to a small degree, if at all.” left out

Sorghum verticilliflorum = assay: Example 13 field trial, 2- to 4-leaf stage: herbicidal effect; assay type: in vivo; settings: 17 days after application
Experimental: as §4, §2, §5

Zea mays (corn) [10] = assay: Example 19 field trial, 4 to 5-leaf stage: crop damage; assay type: in vivo; settings: 100 g of ai/ha; 31 days after application
Experimental: as §4, §2, §3

winter barley = assay: Example 16 field trial, post-emergence, 2- to 3-leaf stage: crop damage; assay type: in vivo, Hordeum vulgare; settings: 50 g of ai/ha; 69 days after application
Experimental: as §4, §2, §3

Oryza sativa (rice) [11] = assay: Example 20 field trial, 3-leaf stage: crop damage; assay type: in vivo; settings: 31 days after application
Experimental: as §4, §2, §5

SMILES: CC(C)(F)c1nc(N)nc(NC(CCc2ccccc2)C2CCC2)n1 (centres unmarked) [(A1), 4-amino-6-(1-fluoro-1-methylethyl)-2-(3-phenyl-1-cyclobutylpropylamino)-1,3,5-triazine]
- damage, ZEAMA (Zea mays (corn) [1]; 50 g of ai/ha): 0%
- damage, ZEAMA (Zea mays (corn) [1]; 100 g of ai/ha): 0%
- damage, ORYSA (Oryza sativa (rice) [2]; 25 g of ai/ha): 0%
- damage, ORYSA (Oryza sativa (rice) [2]; 50 g of ai/ha): 10%
- damage, ORYSA (Oryza sativa (rice) [2]; 100 g of ai/ha): 13%
- herbicidal effect, MOOVA (Monochoria vaginalis; 25 g of ai/ha): 3%
- herbicidal effect, MOOVA (Monochoria vaginalis; 50 g of ai/ha): 90%
- herbicidal effect, MOOVA (Monochoria vaginalis; 100 g of ai/ha): 95%
- herbicidal effect, SETVI (Setaria viridis): 0%
- herbicidal effect, ECHCG (Echinochloa crus-galli): 0%
- herbicidal effect, LAMAM (Lamium amolexicaule; 25 g of ai/ha): 60%
- herbicidal effect, LAMAM (Lamium amolexicaule; 50 g of ai/ha): 74%
- herbicidal effect, LAMAM (Lamium amolexicaule; 100 g of ai/ha): 80%
- herbicidal effect, MATCH (Matricaria chamomilla; 25 g of ai/ha): 43%
- herbicidal effect, MATCH (Matricaria chamomilla; 50 g of ai/ha): 58%
- herbicidal effect, MATCH (Matricaria chamomilla; 100 g of ai/ha): 73%
- damage, Corn (LL) [3]: 0%
- herbicidal effect, CAPPBP (Capsella bursa-pastoris [4]; 25 g of ai/ha): 40%
- herbicidal effect, CAPPBP (Capsella bursa-pastoris [4]; 50 g of ai/ha): 68%
- herbicidal effect, CAPPBP (Capsella bursa-pastoris [4]; 75 g of ai/ha): 73%
- herbicidal effect, CAPPBP (Capsella bursa-pastoris [4]; 100 g of ai/ha): 79%
- herbicidal effect (%), TRZAW (crop) (winter wheat [5]): 0%
- damage, TRZAW (winter wheat [6]; 12.5 g of ai/ha): 0%
- damage, TRZAW (winter wheat [6]; 25 g of ai/ha): 0%
- damage, TRZAW (winter wheat [6]; 50 g of ai/ha): 0%
- damage, ORYSA (Oryza sativa (rice) [7]; 25 g of ai/ha): 0%
- damage, ORYSA (Oryza sativa (rice) [7]; 50 g of ai/ha): 0%
- damage, ORYSA (Oryza sativa (rice) [7]; 100 g of ai/ha): 0%
- damage, TRZAW (winter wheat [8]; 25 g of ai/ha): 0%
- damage, TRZAW (winter wheat [8]; 50 g of ai/ha): 2%
- damage, TRZAW (winter wheat [8]; 100 g of ai/ha): 2%
- herbicidal effect, IPOHE (Ipomoea hederacea; 50 g of ai/ha): 85%
- herbicidal effect, IPOHE (Ipomoea hederacea; 100 g of ai/ha): 93%
- herbicidal effect, SETFA (Setaria faberi; 50 g of ai/ha): 85%
- herbicidal effect, SETFA (Setaria faberi; 100 g of ai/ha): 94%
- herbicidal effect, ALOMY (Alopecurus myosuroides): 0%
- herbicidal effect, CAPBP (Capsella bursa-pastoris [9]): 88%
- herbicidal effect, PHBPU (Pharbitis purpurea; 25 g of ai/ha): 90%
- herbicidal effect, PHBPU (Pharbitis purpurea; 50 g of ai/ha): 95%
- herbicidal effect, PHBPU (Pharbitis purpurea; 100 g of ai/ha): 97%
- herbicidal effect, SORVE (Sorghum verticilliflorum; 62.5 g of ai/ha): 35%
- herbicidal effect, SORVE (Sorghum verticilliflorum; 125 g of ai/ha): 50%
- damage, ZEAMA (Zea mays (corn) [10]): 0%
- herbicidal effect (%), HORVW (crop) (winter barley): 0%
- damage, ORYSA (Oryza sativa (rice) [11]; 25 g of ai/ha): 0%
- damage, ORYSA (Oryza sativa (rice) [11]; 50 g of ai/ha): 0%
- damage, ORYSA (Oryza sativa (rice) [11]; 100 g of ai/ha): 0%
